From PMC8878721, “Screening of TNFR1 Binding Peptides from Deinagkistrodon acutus Venom through Phage Display” (Toxins, 2022)

Tests used:
[1] = Dissolution test of DAvp-1; type: physicochemical
Procedure: DAvp-1, which appeared in the white lyophilized powder, was synthesized following the solid phase peptide synthesis (SPPS) Fmoc protocol, and Mass Spectrometer (MS) and HPLC were used for quantitative and qualitative verification. A purity of 95.346% was determined with the HPLC methodology (Figure 3A). The mass-to-charge ratios of [M+8H]^8+, [M+7H]^7+, [M+6H]^6+, and [M+5H]^5+ were 594.5, 679.3, 792.3, and 950.5, respectively, and the highest peak of [M+5H]^5+ was selected to calculate the molecular weight (MW). The formula is (1) MW=m/z×C−C(1) where MW is the molecular weight, m/z is the mass-to-charge ratio, and C is the charge.
Homologous modeling has been developed for predicting the 3D structure of proteins and peptides originating from various organisms, and this most accurate modeling method was widely used in structural biology. Software simulations were applied to test if there was a positive interaction with TNFR1 [37]. […] A promising solubility is conducive to the development of drugs.

[2] = system: pro-inflammatory cytokines; settings: snake venom extracts; ref [2],[3],[4]; cited from earlier work
Source text: Snake venoms have been used as traditional Chinese medicines for hundreds of years, and they have a positive effect on autoimmune inflammatory diseases such as rheumatoid arthritis. However, their active, effective ingredients and their mechanisms of action are not fully understood yet. Studies have shown that snake venom is a mixture of proteins and peptides with various biological activities, including anti-tumor, anti-inflammatory, anti-stroke, and analgesic activities. For example, snake venom extracts such as Cathelicidin-BF and Cathelicidin-CATH can inhibit pro-inflammatory cytokin ...

In the case of `CSCC[C@H](NC(=O)[C@H](CCCNC(=N)N)NC(=O)CNC(=O)[C@H](CCCNC(=N)N)NC(=O)[C@H](CC(C)C)NC(=O)[C@@H](NC(=O)[C@H](CC(C)C)NC(=O)[C@H](CO)NC(=O)[C@@H](N)CC(N)=O)C(C)C)C(=O)N[C@@H](CCCNC(=N)N)C(=O)N[C@@H](CC(=O)O)C(=O)N[C@H](C(=O)N[C@@H](CCCCN)C(=O)N[C@H](C(=O)N[C@@H](CCCNC(=N)N)C(=O)N[C@@H](CC(=O)O)C(=O)N[C@@H](CC(=O)O)C(=O)NCC(=O)N[C@@H](CCCNC(=N)N)C(=O)N[C@@H](CCCCN)C(=O)N[C@@H](CO)C(=O)N1CCC[C@H]1C(=O)N[C@@H](CO)C(=O)N[C@@H](Cc1c[nH]cn1)C(=O)N[C@@H](Cc1c[nH]cn1)C(=O)N[C@@H](CO)C(=O)N[C@@H](CCCCN)C(=O)N[C@@H](Cc1ccccc1)C(=O)N[C@@H](CO)C(=O)NCC(=O)NCC(=O)N[C@H](C(=O)N[C@@H](CCCNC(=N)N)C(=O)N[C@@H](CC(N)=O)C(=O)N[C@@H](Cc1c[nH]c2ccccc12)C(=O)N[C@@H](CCC(N)=O)C(=O)N[C@@H](CCCCN)C(=O)N[C@@H](CC(C)C)C(=O)N[C@H](C(=O)N[C@@H](CCCCN)C(=O)N[C@@H](CC(C)C)C(=O)O)C(C)C)[C@@H](C)O)C(C)C)C(C)C` [DAvp-1], the “solubility in PBS” value ([1]; 1 × phosphate buffer saline (PBS) (pH 7.1), lyophilized powder, qualitative) is reported as “could be dissolved”, the “solubility in DMSO” value ([1]; dimethyl sulfoxide (DMSO), lyophilized powder, qualitative) is reported as “could be dissolved” and the “solubility (overall)” value ([1]; dissolution test, in words) is reported as “good solubility”. The “solubility in ultrapure water” value ([1]; ultrapure water, lyophilized powder, qualitative) was “could be dissolved”.

For Cathelicidin-BF, the “effect on pro-inflammatory cytokines” value [2] is listed as “can inhibit pro-inflammatory cytokines”.
